Measured values taken from US4348410A, “Cyclohexane carboxylic acid derivatives” (Nippon Chemiphar Co., Ltd., priority 1979, dated 1982).
Counter-ions that a name gives are not always drawn. Values belong to the compound of their own block, whether it stands above or below them.

Legend:
urokinase = urokinase (Homo sapiens, UniProt P00749); experiment: Inhibitory effects on urokinase (hydrolysis of N-acetylglycyl lysine methyl ester); type: biochemical; conditions: for inhibition at 100 µM: 0.1 mM, read-out: inhibited hydrolytic activity by urokinase; for Inhibition (%) Urokinase: 37° C., 10 minutes, concentration not given
Method: The compounds of the formula (I) have excellent inhibitory effects on protease. The inhibitory effects were determined by the following methods: Inhibitory effects of the compounds on urokinase were determined according to the method described by A. J. Joeson et al (Throm. […]. 21, 259-272 (1969)). In particular, inhibitory effects of the compounds on hydrolysis of N-acetylglycyl lysine methyl ester by urokinase were determined (incubated at 37° C. for 10 minutes).

trypsin = molecular target: T1, trypsin (Bos taurus, UniProt P00760); experiment: Inhibitory effects on trypsin (hydrolysis of p-tosylarginine methyl ester); type: biochemical; conditions: for Inhibition (%) Trypsin: 37° C., 10 minutes, concentration not given
T1 sequence (P00760 24-246): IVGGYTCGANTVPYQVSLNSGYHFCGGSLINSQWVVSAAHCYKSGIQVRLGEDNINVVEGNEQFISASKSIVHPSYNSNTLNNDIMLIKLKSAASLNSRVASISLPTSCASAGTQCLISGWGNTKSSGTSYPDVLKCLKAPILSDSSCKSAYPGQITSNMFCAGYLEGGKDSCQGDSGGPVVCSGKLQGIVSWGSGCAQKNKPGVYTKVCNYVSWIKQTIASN
Method: In particular, inhibitory effects of the compounds on hydrolysis of p-tosylarginine methyl ester by trypsin were examined (incubated at 37° C. for 10 minutes).

thrombin = thrombin (Bos taurus, UniProt P00735); experiment: Inhibitory effects on thrombin (hydrolysis of p-tosylarginine methyl ester); type: biochemical; conditions: for Inhibition (%) Thrombin: 37° C., 10 minutes, concentration not given
Method: The compounds of the formula (I) have excellent inhibitory effects on protease. The inhibitory effects were determined by the following methods:
Inhibitory effects of the compounds on thrombin were determined according to the method described by M. Muramatsu et al (The Journal of Biochemistry, Volume 65 (1), 17 (1969)). In particular, inhibitory effects of the compounds on hydrolysis of p-tosylarginine methyl ester by thrombin were examined (incubated at 37° C. for 10 minutes).

chymotrypsin = chymotrypsin (Bos taurus, UniProt P00766); experiment: Inhibitory effects on chymotrypsin (hydrolysis of N-acetyl-L-tyrosine ethyl ester); type: biochemical; conditions: for Inhibition (%) Chymotrypsin: 37° C., 10 minutes, concentration not given
Method: The compounds of the formula (I) have excellent inhibitory effects on protease. The inhibitory effects were determined by the following methods: Inhibitory effects on the compounds of chymotrypsin were determined according to the method described by M. […] In particular, inhibitory effects of the compounds on hydrolysis of N-acetyl-L-tyrosine ethyl ester by chymotrypsin were examined (incubated at 37° C. for 10 minutes).

gastric secretion = experiment: Influence to the gastric secretion (pylorus ligation); type: in vivo, Male Sprague-Dawley strain rats; conditions: 12.5 mg/kg i.p.
Method: Male Sprague-Dawley strain rats, weighing 160-180 g were deprived of food but allowed free access to water for 20 hours prior to experiment. […] The test drug was given intraperitoneally immediately after pylorus ligation. The rats were sacrificed 3, 6 and 12 hours later and the stomachs removed. The gastric juice was collected and analyzed for volume. Then the gastric juice was centrifuged at 1300 g for 10 minutes at room temperature to give the supernatant. The total acidity and peptic activity of the supernatant were determined. Total acidity was determined by titrating with 0.01 N NaOH. […] Total acidity is shown as the titration volume (ml) and peptic activity is shown as the corresponding weight (mg) to crystal pepsin.

Shay ulcers = Shay ulcers (pylorus ligation); type: in vivo, Male Sprague-Dawley strain rats; conditions: 12.5 mg/kg i.p.
Method: The rats were sacrificed 18 hours later by an overdose of ether and the stomach removed. The stomach was incised along the greater curvature and the surface area of each lesion in forestomach was measured by the naked eye. […] 4=many ulcers of marked size 5=perforated ulcer The test drugs were given intraperitoneally, immediately after pylorus ligation.

acetic acid ulcers = experiment: Acetic acid ulcers; type: in vivo, Male Sprague-Dawley strain rats; conditions: for Ulcer Grade 1 (number of rats): ulcer area 0-10 mm^2; for Ulcer Grade 2 (number of rats): ulcer area 11-20 mm^2; for Ulcer Grade 3 (number of rats): ulcer area 21-30 mm^2; for Ulcer Grade 4 (number of rats): ulcer area 31-40 mm^2; for Ulcer Grade 5 (number of rats): ulcer area >40 mm^2
Method: Male Sprague-Dawley strain rats, weighing about 200 g were used. Under ether anesthesia 10% acetic acid solution (0.05 ml) was injected carefully between the serous membrane and the muscle near the pylorus, and the abdomen was closed. Thereafter, the animals were maintained under conditions and administered 1 ml/100 g of each test drug dissolved or suspended in 0.5% carboxymethylcellulose solution p.o. daily×10 starting from the next day of the operation. On the 11th day, the rats were sacrificed under ether anesthesia, and the stomachs were removed. The area of the ulcer was measured and graded into 5 degrees as an ulcer index according to the following method: […]

Compound: Cc1c(C)c2c(c(C)c1OC(=O)[C@H]1CC[C@H](CNC(=N)N)CC1)CCC(C)(CCCC(C)CCCC(C)CCCC(C)C)O2 (some centres unmarked) [Example 1]
inhibition at 100 µM (trypsin; 0.1 mM, read-out: inhibited hydrolytic activity by trypsin): ~50%
inhibition at 100 µM (thrombin; 0.1 mM, read-out: inhibited hydrolytic activity by thrombin): ~50%

Compound: N=C(N)NC[C@H]1CC[C@H](C(=O)Oc2ccccc2C(=O)Oc2ccccc2)CC1 [Compound 5]
Inhibition (%) Urokinase (urokinase): 35%
Inhibition (%) Trypsin (trypsin): 38%
Inhibition (%) Thrombin (thrombin): 34%
Inhibition (%) Chymotrypsin (chymotrypsin): 90%

Compound: CN1[C@@H]2CC[C@H]1C[C@@H](OC(=O)C(CO)c1ccccc1)C2 (some centres unmarked) [Compound B, atropine sulfate, reference compound]
Titratable Pepsin Output (gastric secretion; 3 hours): 3.3 ± 0.9 mg
Titratable Pepsin Output % change (gastric secretion; 3 hours): 43.1%
Titratable Pepsin Output (gastric secretion; 6 hours): 9.7 ± 1.6 mg
Titratable Pepsin Output % change (gastric secretion; 6 hours): 55.3%
Titratable Pepsin Output (gastric secretion; 12 hours): 34.2 ± 1.4 mg
Titratable Pepsin Output % change (gastric secretion; 12 hours): 41.0%
Ulcer Grade 0 (number of rats) (Shay ulcers; 0=no lesion): 2
Ulcer Grade 1 (number of rats) (Shay ulcers; 1=hemorrhagic suffusion): 1
Ulcer Grade 2 (number of rats) (Shay ulcers; 2=1-5 small ulcers (<3 mm)): 0
Ulcer Grade 3 (number of rats) (Shay ulcers; 3=many small ulcers (more than 5) or 1 ulcer of marked size): 1
Ulcer Grade 4 (number of rats) (Shay ulcers; 4=many ulcers of marked size): 3
Ulcer Grade 5 (number of rats) (Shay ulcers; 5=perforated ulcer): 3

Compound: CC(=O)c1ccccc1OC(=O)[C@H]1CC[C@H](CNC(=N)N)CC1 [Example 23, 2'-Acetylphenyl trans-4-guanidomethycylohexanecarboxylate hydrochloride]
inhibition at 50 µM (chymotrypsin; 0.05 mM, read-out: inhibited hydrolytic activity by chymotrypsin): 50%

Compound: N=C(N)NC[C@H]1CC[C@H](C(=O)Oc2ccccc2C=O)CC1 [Example 19]
inhibition at 100 µM (urokinase): 56%

Compound: N=C(N)NC[C@H]1CC[C@H](C(=O)Oc2ccccc2C(=O)O)CC1 [Compound 10]
Ulcer Grade 1 (number of rats) (acetic acid ulcers; 300 mg/kg p.o. daily×10): 4
Ulcer Grade 2 (number of rats) (acetic acid ulcers; 300 mg/kg p.o. daily×10): 2
Ulcer Grade 3 (number of rats) (acetic acid ulcers; 300 mg/kg p.o. daily×10): 1
Ulcer Grade 4 (number of rats) (acetic acid ulcers; 300 mg/kg p.o. daily×10): 0
Ulcer Grade 5 (number of rats) (acetic acid ulcers; 300 mg/kg p.o. daily×10): 2
Ulcer Grade 1 (number of rats) (acetic acid ulcers; 500 mg/kg p.o. daily×10): 4
Ulcer Grade 2 (number of rats) (acetic acid ulcers; 500 mg/kg p.o. daily×10): 3
Ulcer Grade 3 (number of rats) (acetic acid ulcers; 500 mg/kg p.o. daily×10): 1
Ulcer Grade 4 (number of rats) (acetic acid ulcers; 500 mg/kg p.o. daily×10): 0
Ulcer Grade 5 (number of rats) (acetic acid ulcers; 500 mg/kg p.o. daily×10): 0

Second part, the compound after the results:

inhibition at 100 µM (urokinase): 52%
Compound: COc1ccc(OC(=O)[C@H]2CC[C@H](CNC(=N)N)CC2)cc1 [Example 21]

inhibition at 100 µM (urokinase): 50%
Compound: COc1ccccc1OC(=O)[C@H]1CC[C@H](CNC(=N)N)CC1 [Example 20]

Inhibition (%) Urokinase (urokinase): 84%
Inhibition (%) Trypsin (trypsin): 22%
Inhibition (%) Thrombin (thrombin): 35%
Inhibition (%) Chymotrypsin (chymotrypsin): 28%
Compound: CCOc1ccccc1OC(=O)[C@H]1CC[C@H](CNC(=N)N)CC1 [Compound 4]

Inhibition (%) Urokinase (urokinase): 67%
Inhibition (%) Trypsin (trypsin): 23%
Inhibition (%) Thrombin (thrombin): 32%
Inhibition (%) Chymotrypsin (chymotrypsin): 70%
Compound: Cl.N=C(N)NC[C@H]1CC[C@H](C(=O)Oc2cccnc2)CC1 [Compound 7, 3pyridyl trans4-guanidinomethylcyclohexanecarboxylate hydrochloride]

Inhibition (%) Urokinase (urokinase): 50%
Inhibition (%) Trypsin (trypsin): 25%
Inhibition (%) Thrombin (thrombin): 39%
Inhibition (%) Chymotrypsin (chymotrypsin): 70%
Compound: CCOC(=O)c1ccc(OC(=O)[C@H]2CC[C@H](CNC(=N)N)CC2)cc1 [Compound 6]
